{
  "source": "patent US4034092A",
  "about": "“7-Acyl-3-(carboxyalkyl and carbamoylalkyl substituted oxadiazolylthiomethyl) cephalosporins” (SmithKline Corporation, priority 1976, dated 1977)",
  "key": {"[1]": {"tested_on": "S. aureus HH 125", "test": "in vitro MIC testing, S. aureus HH 125", "type": "cell-based", "conditions": "Staphylococcus aureus, HH125", "method": "(§1) The compounds of Formula I have exceptional antibacterial activity against both Gram-positive and Gram-negative organisms. Minimum inhibitory concentrations (MIC's) range from 0.2 to >200 μg./ml. in in vitro testing. Test results for the compound 7-D-mandelamido-3-(5-carboxymethyl-1,3,4-oxadiazol-2-ylthiomethyl)-3-cephem-4-carboxylic acid and its disodium salt, respectively, are given below: […]"}, "[2]": {"tested_on": "S. aureus SK 23390", "test": "in vitro MIC testing, S. aureus SK 23390", "type": "cell-based", "conditions": "Staphylococcus aureus, SK23390", "method": "as §1"}, "[3]": {"tested_on": "S. villaluz SK 70390", "test": "in vitro MIC testing, S. villaluz SK 70390", "type": "cell-based", "method": "as §1"}, "[4]": {"tested_on": "Strep. faecalis HH 34358", "test": "in vitro MIC testing, Strep. faecalis HH 34358", "type": "cell-based", "conditions": "Enterococcus faecalis, HH34358", "method": "as §1"}, "[5]": {"tested_on": "E. coli SK 12140", "test": "in vitro MIC testing, E. coli SK 12140", "type": "cell-based", "conditions": "Escherichia coli, SK12140", "method": "as §1"}, "[6]": {"tested_on": "E. coli HH 33779", "test": "in vitro MIC testing, E. coli HH 33779", "type": "cell-based", "conditions": "Escherichia coli, HH33779", "method": "as §1"}, "[7]": {"tested_on": "Kleb. pneumo. SK 1200", "test": "in vitro MIC testing, Kleb. pneumo. SK 1200", "type": "cell-based", "method": "as §1"}, "[8]": {"tested_on": "Salmonella ATCC 12176", "test": "in vitro MIC testing, Salmonella ATCC 12176", "type": "cell-based", "conditions": "ATCC12176", "method": "as §1"}, "[9]": {"tested_on": "Shigella HH 117", "test": "in vitro MIC testing, Shigella HH 117", "type": "cell-based", "conditions": "HH117", "method": "as §1"}, "[10]": {"tested_on": "Pseudo. aerug. HH 63", "test": "in vitro MIC testing, Pseudo. aerug. HH 63", "type": "cell-based", "method": "as §1"}, "[11]": {"tested_on": "Serratia marc. ATCC 13880", "test": "in vitro MIC testing, Serratia marc. ATCC 13880", "type": "cell-based", "conditions": "ATCC13880", "method": "as §1"}, "[12]": {"tested_on": "Kleb. pneumo. SK 4200", "test": "in vitro MIC testing, Kleb. pneumo. SK 4200", "type": "cell-based", "method": "as §1"}, "[13]": {"tested_on": "Proteus morgani 179", "test": "in vitro MIC testing, Proteus morgani 179", "type": "cell-based", "method": "as §1"}, "[14]": {"tested_on": "Entero. aerog. ATCC 13048", "test": "in vitro MIC testing, Entero. aerog. ATCC 13048", "type": "cell-based", "method": "as §1"}, "[15]": {"tested_on": "Entero. cloacae HH 31254", "test": "in vitro MIC testing, Entero. cloacae HH 31254", "type": "cell-based", "conditions": "Enterobacter cloacae, HH31254", "method": "as §1"}, "[16]": {"tested_on": "E. coli 12140", "test": "in vivo mouse protection test, E. coli 12140", "conditions": "Escherichia coli, sc; subcutaneous injection; against E. coli 12140", "excerpt": "(§2) 4200 upon subcutaneous injection."}, "[17]": {"tested_on": "Kleb. pneumo. 4200", "test": "in vivo mouse protection test, Kleb. pneumo. 4200", "conditions": "sc, subcutaneous injection, against Kleb. pneumo. 4200", "excerpt": "as §2"}},
  "note": "Like-named read-outs stand apart in the source and are kept apart here.",
  "data": [
    {"compound": "O=C([O-])Cc1nnc(SCC2=C(C(=O)[O-])N3C(=O)C(NC(=O)[C@H](O)c4ccccc4)[C@H]3SC2)o1.[Na+].[Na+]", "note": "(stereo partly drawn) [7-D-Mandelamido-3-(5-carboxymethyl-1,3,4-oxadiazol-2-ylthiomethyl)-3-cephem-4-carboxylic acid disodium salt]", "values": [
      {"measurement": "MIC", "setting": "[1]", "result": 3.1, "unit": "µg/mL"},
      {"measurement": "MIC", "setting": "[2]", "result": 0.8, "unit": "µg/mL"},
      {"measurement": "MIC", "setting": "[3]", "result": 200, "unit": "µg/mL"},
      {"measurement": "MIC", "setting": "[4]", "result": 50, "unit": "µg/mL"},
      {"measurement": "MIC", "setting": "[5]", "result": 0.8, "unit": "µg/mL"},
      {"measurement": "MIC", "setting": "[6]", "result": 3.1, "unit": "µg/mL"},
      {"measurement": "MIC", "setting": "[7]", "result": 0.4, "unit": "µg/mL"},
      {"measurement": "MIC", "setting": "[8]", "result": 0.8, "unit": "µg/mL"},
      {"measurement": "MIC", "setting": "[9]", "result": 0.4, "unit": "µg/mL"},
      {"measurement": "MIC", "setting": "[10]", "result": "> 200", "unit": "µg/mL"},
      {"measurement": "MIC", "setting": "[11]; Serratia", "result": 50, "unit": "µg/mL"}
    ]},
    {"compound": "O=C(O)Cc1nnc(SCC2=C(C(=O)O)N3C(=O)C(NC(=O)[C@H](O)c4ccccc4)[C@H]3SC2)o1", "note": "(stereo partly drawn) [7-D-Mandelamido-3-(5-carboxymethyl-1,3,4-oxadiazol-2-ylthiomethyl)-3-cephem-4-carboxylic acid]", "values": [
      {"measurement": "MIC", "setting": "[1]; in vitro, S. aureus HH 125, read-out: MIC", "result": 1.6, "unit": "µg/mL"},
      {"measurement": "MIC", "setting": "[2]; in vitro, S. aureus SK 23390, read-out: MIC", "result": 0.4, "unit": "µg/mL"},
      {"measurement": "MIC", "setting": "[3]", "result": 50, "unit": "µg/mL"},
      {"measurement": "MIC", "setting": "[4]; in vitro, Strep. faecalis HH 34358, read-out: MIC", "result": 12.5, "unit": "µg/mL"},
      {"measurement": "MIC", "setting": "[5]", "result": 0.8, "unit": "µg/mL"},
      {"measurement": "MIC", "setting": "[6]", "result": 1.6, "unit": "µg/mL"},
      {"measurement": "MIC", "setting": "[12]", "result": 0.8, "unit": "µg/mL"},
      {"measurement": "MIC", "setting": "[7]; in vitro, Kleb. pneumo. SK 1200, read-out: MIC", "result": 0.8, "unit": "µg/mL"},
      {"measurement": "MIC", "setting": "[8]", "result": 0.8, "unit": "µg/mL"},
      {"measurement": "MIC", "setting": "[9]", "result": 0.2, "unit": "µg/mL"},
      {"measurement": "MIC", "setting": "[10]", "result": "> 200", "unit": "µg/mL"},
      {"measurement": "MIC", "setting": "[11]; in vitro, Serratia marc. ATCC 13880, read-out: MIC", "result": 25, "unit": "µg/mL"},
      {"measurement": "MIC", "setting": "[13]", "result": 6.3, "unit": "µg/mL"},
      {"measurement": "MIC", "setting": "[14]", "result": 3.1, "unit": "µg/mL"},
      {"measurement": "MIC", "setting": "[15]", "result": 1.6, "unit": "µg/mL"},
      {"measurement": "ED50", "setting": "[16]", "result": 1.56, "unit": "mg/kg"},
      {"measurement": "ED50", "setting": "[17]", "result": 0.86, "unit": "mg/kg"}
    ]}
  ]
}
